# Source: patent US12275731B2, “Azaindole inhibitors of wild-type and mutant forms of LRRK2” (DANA-FARBER CANCER INSTITUTE, INC., priority 2018, dated 2025)
# Legend:
# Assay in all cases: KinomeScan profiling
# Format in all cases: binding
# [1] = target: CSK (Homo sapiens, UniProt P41240); settings: read-out: % control
# Outline: (§1)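 Luminescence (RLU) was converted to percent of control, with DMSO set as 100% and a reference compound as 0%. Test compounds were run at 1 μM against 468 kinases. Kinases showing below 35% of control were scored as bound.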
# [2] = target: T1, EPHB1 (Homo sapiens, UniProt P54762); settings: EPHB1, 1 μM; read-out: % control
# T1 sequence (P54762 18-984): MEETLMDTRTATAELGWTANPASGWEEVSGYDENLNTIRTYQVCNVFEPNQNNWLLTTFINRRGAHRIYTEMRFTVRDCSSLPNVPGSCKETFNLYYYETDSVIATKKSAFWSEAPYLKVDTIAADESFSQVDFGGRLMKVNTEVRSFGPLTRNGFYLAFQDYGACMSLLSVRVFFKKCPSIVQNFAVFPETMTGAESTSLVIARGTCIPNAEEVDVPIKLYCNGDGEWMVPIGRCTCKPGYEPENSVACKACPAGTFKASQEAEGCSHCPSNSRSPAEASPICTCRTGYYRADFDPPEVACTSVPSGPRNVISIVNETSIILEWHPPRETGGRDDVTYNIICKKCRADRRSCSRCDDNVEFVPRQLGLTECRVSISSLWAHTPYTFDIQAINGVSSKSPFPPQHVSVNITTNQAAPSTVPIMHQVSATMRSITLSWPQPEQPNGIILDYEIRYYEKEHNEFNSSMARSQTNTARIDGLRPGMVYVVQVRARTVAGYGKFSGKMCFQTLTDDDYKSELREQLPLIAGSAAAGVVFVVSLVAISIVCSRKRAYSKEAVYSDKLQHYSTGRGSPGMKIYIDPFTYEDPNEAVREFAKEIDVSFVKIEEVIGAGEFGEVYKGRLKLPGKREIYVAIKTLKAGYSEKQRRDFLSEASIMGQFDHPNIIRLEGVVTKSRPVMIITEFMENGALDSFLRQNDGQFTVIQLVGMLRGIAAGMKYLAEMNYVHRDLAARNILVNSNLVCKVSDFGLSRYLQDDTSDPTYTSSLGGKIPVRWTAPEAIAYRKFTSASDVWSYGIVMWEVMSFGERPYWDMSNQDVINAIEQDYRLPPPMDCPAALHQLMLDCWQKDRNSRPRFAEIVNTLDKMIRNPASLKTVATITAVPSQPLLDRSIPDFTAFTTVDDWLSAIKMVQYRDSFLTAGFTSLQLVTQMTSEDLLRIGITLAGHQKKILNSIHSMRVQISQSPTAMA
# Outline: as §1
# [3] = target: T2, MAP4K3 (Homo sapiens, UniProt Q8IVH8); settings: MAP4K3, 1 μM; read-out: % control
# T2 sequence (Q8IVH8 1-894): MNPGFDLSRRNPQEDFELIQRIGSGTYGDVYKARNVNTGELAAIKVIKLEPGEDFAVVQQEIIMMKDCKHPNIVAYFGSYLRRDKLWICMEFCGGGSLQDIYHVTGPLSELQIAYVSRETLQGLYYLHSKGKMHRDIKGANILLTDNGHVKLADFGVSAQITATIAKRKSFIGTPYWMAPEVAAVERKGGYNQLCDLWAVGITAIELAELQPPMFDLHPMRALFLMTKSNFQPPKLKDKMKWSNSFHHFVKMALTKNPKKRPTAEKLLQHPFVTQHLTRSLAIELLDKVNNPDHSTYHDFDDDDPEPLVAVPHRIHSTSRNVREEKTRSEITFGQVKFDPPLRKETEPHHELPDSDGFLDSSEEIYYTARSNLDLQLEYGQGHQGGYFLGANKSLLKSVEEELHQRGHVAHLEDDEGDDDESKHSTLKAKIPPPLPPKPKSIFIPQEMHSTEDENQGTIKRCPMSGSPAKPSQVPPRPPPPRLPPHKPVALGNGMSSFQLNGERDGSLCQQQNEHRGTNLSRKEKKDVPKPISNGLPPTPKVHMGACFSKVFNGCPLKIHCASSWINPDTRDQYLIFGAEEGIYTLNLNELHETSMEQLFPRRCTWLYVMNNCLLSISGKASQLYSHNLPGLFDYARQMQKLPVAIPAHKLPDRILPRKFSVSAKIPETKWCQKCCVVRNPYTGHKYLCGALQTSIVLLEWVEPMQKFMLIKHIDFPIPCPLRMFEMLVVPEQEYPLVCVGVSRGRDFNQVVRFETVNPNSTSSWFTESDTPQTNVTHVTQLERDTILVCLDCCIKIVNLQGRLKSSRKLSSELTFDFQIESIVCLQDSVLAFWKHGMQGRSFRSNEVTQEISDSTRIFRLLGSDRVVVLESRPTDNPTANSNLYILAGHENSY
# Outline: as §1
# [4] = target: T3, CDC2L2 (Homo sapiens, UniProt Q9UQ88); settings: CDC2L2, 1 μM; read-out: % control
# T3 sequence (Q9UQ88 1-783): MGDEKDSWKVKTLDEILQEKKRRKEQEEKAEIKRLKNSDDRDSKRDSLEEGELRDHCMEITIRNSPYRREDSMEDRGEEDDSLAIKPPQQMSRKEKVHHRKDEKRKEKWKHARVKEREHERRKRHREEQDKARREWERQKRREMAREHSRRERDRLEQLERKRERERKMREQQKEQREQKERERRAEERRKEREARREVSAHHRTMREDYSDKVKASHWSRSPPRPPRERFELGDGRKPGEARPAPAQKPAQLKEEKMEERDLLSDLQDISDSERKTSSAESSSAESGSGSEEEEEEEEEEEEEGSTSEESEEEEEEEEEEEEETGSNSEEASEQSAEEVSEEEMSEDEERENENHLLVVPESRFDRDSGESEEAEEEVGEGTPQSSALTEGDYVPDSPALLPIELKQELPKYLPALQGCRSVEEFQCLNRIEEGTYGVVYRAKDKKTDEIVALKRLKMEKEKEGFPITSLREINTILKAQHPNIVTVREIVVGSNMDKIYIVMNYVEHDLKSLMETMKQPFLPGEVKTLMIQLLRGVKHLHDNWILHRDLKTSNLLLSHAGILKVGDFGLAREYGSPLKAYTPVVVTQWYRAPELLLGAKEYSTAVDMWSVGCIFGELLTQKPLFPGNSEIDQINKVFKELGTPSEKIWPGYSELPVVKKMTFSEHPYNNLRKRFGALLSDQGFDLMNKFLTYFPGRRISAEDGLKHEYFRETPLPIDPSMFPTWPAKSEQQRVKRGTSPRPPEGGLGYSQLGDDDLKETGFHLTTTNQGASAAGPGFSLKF
# Outline: as §1
# Chain of CSK (P41240 whole entry): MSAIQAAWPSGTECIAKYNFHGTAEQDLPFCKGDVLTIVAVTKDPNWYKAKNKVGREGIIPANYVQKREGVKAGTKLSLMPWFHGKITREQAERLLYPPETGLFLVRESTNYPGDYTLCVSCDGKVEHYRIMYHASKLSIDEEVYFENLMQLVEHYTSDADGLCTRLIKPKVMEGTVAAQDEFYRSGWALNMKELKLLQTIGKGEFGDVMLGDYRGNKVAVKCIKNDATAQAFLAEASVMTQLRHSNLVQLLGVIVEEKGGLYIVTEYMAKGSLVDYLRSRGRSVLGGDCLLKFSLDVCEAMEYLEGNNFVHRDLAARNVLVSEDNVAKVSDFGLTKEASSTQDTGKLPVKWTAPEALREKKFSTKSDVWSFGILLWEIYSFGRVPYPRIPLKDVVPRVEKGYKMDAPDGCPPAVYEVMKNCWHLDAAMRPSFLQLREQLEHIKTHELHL
Structure (SMILES),remaining binding at 1 µM [1],remaining binding at 1 µM [2],remaining binding at 1 µM [3],remaining binding at 1 µM [4]
"CNc1c(-c2cnn([C@H]3CCN(C(C)=O)C[C@@H]3F)c2)cnc2[nH]cc(Cl)c12 [Compound 77, 1-((3S,4S)-4-(4-(3-chloro-4-(methylamino)-1H-pyrrolo[2,3-b]pyridin-5-yl)-1H-pyrazol-1-yl)-3-fluoropiperidin-1-yl)ethan-1-one]",22%,93%,94%,91%
"CNc1c(-c2ccc(C(=O)N3CCC(N4CCOCC4)CC3)cc2)cnc2[nH]cc(Cl)c12 [Compound 96, (4-(3-chloro-4-(methylamino)-1H-pyrrolo[2,3-b]pyridin-5-yl)phenyl)(4-morpholinopiperidin-1-yl)methanone]",44%,100%,83%,100%
"O=C(c1ccc(-c2cnc3[nH]cc(Cl)c3c2NC2CCCC2)cc1)N1CCC(N2CCOCC2)CC1 [Compound 101, (4-(3-chloro-4-(cyclopentylamino)-1H-pyrrolo[2,3-b]pyridin-5-yl)phenyl)(4-morpholinopiperidin-1-yl)methanone]",100%,95%,74%,92%
